Assay results taken from US20070054884A1 (priority 2005, published 2007).
≈ marks a conversion by molar mass, not a printed value.

How the values were obtained:
B.anthracis V770-NR1-R = test: microbe, parasite or virus in culture; type: cell-based; details: Bacillus anthracis, V770NR1R, read-out: MIC B.anthracis V770-NR1-R
B. cereus = test: Minimum Inhibitory Concentration (MIC), broth dilution method; type: cell-based; details: Bacillus cereus, read-out: MIC B. cereus
Protocol: (§1) Minimum Inhibitory Concentration (MIC), Broth Dilution Method:
(§2) The compounds of the present invention were tested against selected Gram positive and Gram negative organisms using standard microtitration techniques well known to those skilled in the art. Cultures of bacteria were initially applied by streaking a loopful onto agar plates under the appropriate conditions. For example, bacterial stocks are streaked for isolation of single colonies onto chocolate agar and then incubated for 18 hours at 35-37° C. in a 5% CO2 incubator. Five to ten colonies were picked from the chocolate agar plate for subculture to Brain-Heart infusion (BHI) broth, Mueller Hinton broth, or BHI containing 4% serum, and incubated under the appropriate conditions. The ability of the test compound to act as an antimicrobial was determined by the ability of dilutions of the test substance to inhibit bacterial growth in vitro. The optical density of the culture of organisms in the presence of an active compound was compared to the optical density of the same organism grown without test compound. The activity of the compounds is described as either negative or the lowest concentration inhibiting growth (Minimum Inhibitory Concentration [MIC]).
(§3) The activity of selected compounds of the present invention against representative Gram positive and Gram negative bacteria are shown in the following Table 1.

S. aureus 29213 = test: as above; type: cell-based; details: Staphylococcus aureus, 29213, read-out: MIC S. aureus 29213
Protocol: as §1, §2, §3

S. pneumoniae 11733 = test: as above; type: cell-based; details: Streptococcus pneumoniae, 11733, read-out: MIC S. pneumoniae 11733
Protocol: as §1, §2, §3

| Compound | MIC (B.anthracis V770-NR1-R) | MIC (B. cereus) | MIC (S. aureus 29213) | MIC (S. pneumoniae 11733) | melting point |
| --- | --- | --- | --- | --- | --- |
| CCOC(=O)NC(=S)Nc1ccc(O)c(Oc2ccccc2O)c1 [Example 9, 1-[4-Hydroxy-3-(2-hydroxy-phenoxy)-phenyl]-3-(ethylozycarbonyl)thiourea] | 3100 µg/mL (≈ 8.9 mM) | 12500 µg/mL (≈ 35.9 mM) | 31300 µg/mL (≈ 89.8 mM) | 62500 µg/mL (≈ 179 mM) | – |
| Oc1cc(Cl)c(N2CCOCC2)cc1Oc1ccc(Cl)cc1Cl [Example 1, 5-Chloro-2-(2,4-dichlorophenoxy)-4-morpholin-4-yl-phenol] | 1600 µg/mL (≈ 4.27 mM) | 800 µg/mL (≈ 2.14 mM) | 500 µg/mL (≈ 1.33 mM) | 1000 µg/mL (≈ 2.67 mM) | 187 to 188 °C |
| CCOC(=O)NC(=S)Nc1cc(Oc2ccc(Cl)cc2Cl)c(O)cc1Cl [Example 7] | 1600 µg/mL (≈ 3.67 mM) | 800 µg/mL (≈ 1.84 mM) | 2000 µg/mL (≈ 4.59 mM) | 31300 µg/mL (≈ 71.8 mM) | 170 to 172 °C |
| Oc1cc(Cl)c(NC(=S)Nc2cc(C(F)(F)F)cc(C(F)(F)F)c2)cc1Oc1ccc(Cl)cc1Cl [Example 16, 1-(3,5-Bis-trifluoromethyl-phenyl)-3-[2-chloro-5-(2,4-dichloro-phenoxy)-4-hydroxy-phenyl]-thiourea] | 200 µg/mL (≈ 0.347 mM) | 100 µg/mL (≈ 0.174 mM) | 500 µg/mL (≈ 0.868 mM) | – | – |
| Oc1cc(Cl)c(-c2nnn[nH]2)cc1Oc1ccc(Cl)cc1Cl [Example 33, 5-Chloro-2-(2,4-dichloro-phenoxy)-4-(1H-tetrazol-5-yl)-phenol] | 12500 µg/mL (≈ 35 mM) | 6200 µg/mL (≈ 17.3 mM) | 200 µg/mL (≈ 0.559 mM) | – | 174 to 180 °C |
| Oc1cc(Cl)c(NC(=S)NC2CCCCC2)cc1Oc1ccc(Cl)cc1Cl [Example 12, 1-[2-Chloro-5-(2,4-dichloro-phenoxy)-4-hydroxy-phenyl]-3-cyclohexyl-thiourea] | – | – | 2000 µg/mL (≈ 4.49 mM) | 31300 µg/mL (≈ 70.2 mM) | – |
| Oc1cc(Cl)c(-c2cccs2)cc1Oc1ccc(Cl)cc1Cl [Example 3, 5-Chloro-2-(2,4-dichloro-phenoxy)-4-thiophen-2-yl-phenol] | 50 µg/mL (≈ 0.135 mM) | 50 µg/mL (≈ 0.135 mM) | 60 µg/mL (≈ 0.161 mM) | 10 µg/mL (≈ 0.0269 mM) | – |
| O=C(Nc1cc(Oc2ccc(Cl)cc2Cl)c(O)cc1Cl)c1ccco1 [Example 20, Furan-2-carboxylic acid [2-chloro-5-(2,4-dichloro-phenoxy)-4-hydroxy-phenyl]-amide] | > 25000 µg/mL | > 25000 µg/mL | 4000 µg/mL (≈ 10 mM) | 2000 µg/mL (≈ 5.02 mM) | – |
| COc1ccc(NC(=S)Nc2cc(Oc3ccc(Cl)cc3Cl)c(O)cc2Cl)cc1 [Example 11, 1-[2-Chloro-5-(2,4-dichloro-phenoxy)-4-hydroxy-phenyl]-3-(4-methoxy-phenyl)-thiourea] | – | – | 7900 µg/mL (≈ 16.8 mM) | 31300 µg/mL (≈ 66.6 mM) | – |
| CN1CCN(c2cc(Oc3ccc(Cl)cc3Cl)c(O)cc2Cl)CC1 [Example 2, 5-Chloro-2-(2,4-dichloro-phenoxy)-4-(4-methyl-piperazin-1-yl)-phenol] | > 25000 µg/mL | > 25000 µg/mL | 60 µg/mL (≈ 0.155 mM) | 250 µg/mL (≈ 0.645 mM) | – |
| CC(=O)Nc1nc(C)c(S(=O)(=O)Nc2cc(Oc3ccc(Cl)cc3Cl)c(O)cc2Cl)s1 [Example 23, N-{5-[2-Chloro-5-(2,4-dichloro-phenoxy)-4-hydroxy-phenylsulfamoyl]-4-methyl-thiazol-2-yl}-acetamide] | – | – | 4000 µg/mL (≈ 7.65 mM) | 15700 µg/mL (≈ 30 mM) | – |
| Cc1cc(O)c(Oc2ccccc2C#N)cc1-c1ccsc1 [Example 27, 2-(2-Hydroxy-4-methyl-5-thiophen-3-yl-phenoxy)-benzonitrile] | 1600 µg/mL (≈ 5.21 mM) | 800 µg/mL (≈ 2.6 mM) | 6200 µg/mL (≈ 20.2 mM) | > 25000 µg/mL | – |
| Cc1cc(C(=O)Nc2cc(Oc3ccc(Cl)cc3Cl)c(O)cc2Cl)no1 [Example 22, 5-Methyl-isoxazole-3-carboxylic acid [2-chloro-5-(2,4-dichloro-phenoxy)-4-hydroxy-phenyl]-amide] | – | – | 2000 µg/mL (≈ 4.84 mM) | 500 µg/mL (≈ 1.21 mM) | – |
| OB(O)c1cc(Oc2ccc(Cl)cc2Cl)c(O)cc1Cl [Example 6, 2-Chloro-5-(2,4-dichloro-phenoxy)-4-hydroxy-phenylboronic acid] | – | – | 500 µg/mL (≈ 1.5 mM) | – | 180 to 183 °C |
| Oc1cc(Cl)c(-n2cccc2)cc1Oc1ccc(Cl)cc1Cl [Example 17, 5-Chloro-2-(2,4-dichloro-phenoxy)-4-pyrrol-1-yl-phenol] | 100 µg/mL (≈ 0.282 mM) | 50 µg/mL (≈ 0.141 mM) | 250 µg/mL (≈ 0.705 mM) | – | 86 to 87 °C |
| Cc1cc(O)c(Oc2ccccc2C#N)cc1-c1ccco1 [Example 28, 2-(5-Furan-2-yl-2-hydroxy-4-methyl-phenoxy)-benzonitrile] | 800 µg/mL (≈ 2.75 mM) | 1600 µg/mL (≈ 5.49 mM) | 2000 µg/mL (≈ 6.87 mM) | 500 µg/mL (≈ 1.72 mM) | – |
